Tests used:
[1] = test system: dorsal root ganglion (DRG) cells; experiment: Neurite outgrowth in dorsal root ganglion (DRG) explant cultures; type: cell-based, mouse; conditions: for neuronal cell growth/neurite extension (images): compared to control, 48 hrs; for neurotrophic or neuroprotectant activity: assay not specified
Procedure: FIG. 7: Primary DRG cultures were used to test for neurotrophic, neurite outgrowth promoting, and neuroregenerative activity. Each of the compounds was incubated with cells at a concentration of 1 μM for 48 hours, as detailed in the examples.
Spinal cord and dorsal root ganglion (DRG) cells from adult mice can be isolated by micro-dissection. The spinal cord with attached DRGs from an adult mouse ([…]) is removed. Spinal nerves are cut away using micro-dissection scissors and any excess material is trimmed until the DRG is free. Using sharp micro-dissecting scissors, a transverse cut is made in the peripheral nerve, leaving 1-2 mm attached, and the explant placed into Petri dish and covered with plating media. When finished collecting all DRGs, the spinal nerve is trimmed to about […] in length. Then embed the explant in 30 μL of reduced growth factor Matrigel on a circular coverslip, and place in a […] culture dish. Cover the sensory ganglion explant with 2 mls of media. Compounds, drugs or control solutions are added from 10× stocks, and incubated at 37° C., 5% CO2, 95% humidity for 48 hrs. Wash cultures twice with PBS, and fix with 10% formalin for 30 minutes. Wash the fixed cultures twice with PBS and store refrigerated in PBS.
Place cultures in Block Buffer (5% Horse Serum, 5% Goat Serum, 1% Triton X, PBS pH=7.4) overnight, while rotating, at a temperature of 4° C. Add primary antibody (Beta tubulin, Sigma Chemical Co.) diluted in Block Buffer and incubate overnight at 4° C. Wash 5 times with PBS and apply secondary antibody (Alexa 488 Goat Anti-Mouse) diluted in block buffer. Incubate overnight at 4° C. Wash 5 times with PBS and leave overnight at 4 degrees. Coverslip the cultures and measure total neurite length from the end of the attached spinal nerve. Lengths of all neurites are quantitated and compared to those present in vehicle-treated control DRGs.

spinal motor neurons = experiment: Neuroprotection assay: THA neurotoxicity in spinal cord slice cultures; type: cell-based, Sprague-Dawley rat; conditions: THA 200 μM + compound 10 μM, primary cultures of spinal motor neurons
Procedure: For each of FIGS. 1-7, the bar graphs represent the number of viable neurons after a specified treatment regimen employed in a neuroprotective activity assay. The cells of the experiments were treated with a control solution, a neurotoxic solution, and neurotoxic+experimental compound solution. The statistical significance, p, is calculated using the standard 2 tailed Student's t test.
Each experiment consisted of two 6-well plates with 5 slices from 4 different animals per well. Media changes were performed every 3 to 4 days. […] The control was an untreated sample with 0.1% DMSO as vehicle. The THA control was a THA treated sample with 0.1% DSMO as vehicle. Two wells were used per condition. One media change with new THA and compounds was performed. […]
Quantification of surviving neurons was performed on a Ziess Axiovert microscope. Neuronal survival was determined by observing an intact neuronal cell body with processes located ventrally of the central canal in each hemisphere. […] Each hemisphere was counted individually. The statistics were performed with StatView software on a minimum of three different experiments per condition and significance was determined as compared to THA control. The percent of protection was determined from the average number of living neurons by the following equation: (drug treatment condition−THA control)/(Untreated control−THA control).

CyP A = CyP A (Homo sapiens, UniProt P62937)
Procedure: A number of substrates for rotamase are known in the art or can be derived from those known. Typically, the substrate contacts a sample containing a protein with rotamase activity and the conversion of the substrate is detected after a period of time. The method for detecting conversion of the substrate will vary with the particular substrate chosen.
The absorbance at 390 nm versus time is monitored for 90 seconds using a spectrophotometer and the rate constants are determined from the absorbance versus time data files.
While CyP A is used in these examples, other CyP proteins can be substituted.

CyP A, sequence (P62937 whole entry): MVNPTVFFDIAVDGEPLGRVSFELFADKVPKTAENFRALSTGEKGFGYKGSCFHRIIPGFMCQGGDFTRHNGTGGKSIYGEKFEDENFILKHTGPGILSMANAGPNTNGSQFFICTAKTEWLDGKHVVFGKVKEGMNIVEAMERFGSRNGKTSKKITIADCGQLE

| Compound | neuronal cell growth/neurite extension (images) [1] | neuroprotective activity (number of viable neurons) (spinal motor neurons) | neurotrophic or neuroprotectant activity [1] | further results |
| --- | --- | --- | --- | --- |
| O=C(Nc1ccc(I)cc1)Nc1cc(NC(=O)Nc2ccc(I)cc2)c(Br)cc1Br [Compound 3] | increase in neuronal cell growth/neurite extension | displays neuroprotective activity |  |  |
| CSc1ccc(Cl)cc1C(=O)Nc1cccc(NC(=O)c2cc(Cl)ccc2SC)c1 [Compound 6] | increase in neuronal cell growth/neurite extension |  | possess neurotrophic or neuroprotectant activity |  |
| O=C(Nc1ccccc1)Nc1cc(NC(=O)Nc2ccccc2)cc(C(F)(F)F)c1 [Compound 7] | increase in neuronal cell growth/neurite extension |  | possess neurotrophic or neuroprotectant activity |  |
| O=C(NCc1cccc2ccccc12)c1cccc(NC(=O)c2cc(Cl)cc(Cl)c2)c1 [Compound 16, {3-[(3,5-dichlorophenyl)carbonylamino]phenyl}-N-(naphthylmethyl) formamide] |  |  |  | melting point: 205 to 208 °C |
| N#Cc1cccc(NC(=O)NCc2cccc(CNC(=O)Nc3cccc(C#N)c3)c2)c1 [Compound 32] |  |  |  | % Inhibition at 10 μM (CyP A): None detected |
| cyclosporin A [reference compound] |  | maintains neuronal viability |  |  |

Reference: patent US6677376B1, “Non-peptidic cyclophilin binding compounds and their use” (Guilford Pharmaceuticals, Inc., priority 1999, dated 2004)
